Assay results published in publication PMC9817974, “Pharmacokinetic Basis for Using Saliva Matrine Concentrations as a Clinical Compliance Monitoring in Antitumor B Chemoprevention Trials in Humans” (Cancers, 2022).
“And” between values parts separate entries of the source, which are not always exact repeats. Identical values can stand only once. Like-named read-outs stand apart in the source and are kept apart here.

Assays:
[1] = design: method as in Gao et al. [11]; details: blood/plasma ratio; ref Gao et al. [11]; cited from earlier work
[2] = Single-dose oral pharmacokinetic study of ATB tablets in healthy human subjects (plasma and saliva, non-compartmental analysis); type: in vivo; details: for AUC(0-t) / Cmax / Tmax / half-life / Kp: both sexes, human, po; for Kp: saliva and plasma; for inter-subject variability of systemic exposure (AUC): n = 8
Procedure: In addition, in vivo correlation between plasma and saliva concentrations was determined as the secondary outcome.
The ratio of drug concentration in plasma and saliva were calculated using Equations (1) and (2). (1) RCmax=Cmax saliva/Cmax plasma (2) RAUC=AUC0–24 saliva/AUC0–24 plasma […]
S2.1. Human Pharmacokinetic Study Design
The study was conducted in two phases. Two self-volunteered subjects participated in the study […]
Participants refrained from consumption of […]
dosing blood and saliva samples were collected. Each participant received single-dose oral […]
saliva sample kit for salivary collection. Plasma samples were then collected by centrifugation of […]
hour post-administration. […]
administration. […] Throughout the […]
collected and saline lock was removed. Participants returned the next day morning for 24-hour […]
Participants fasted 8-12 hours before each

[3] = Stability of ATB tablets (ICH storage conditions)
Procedure: Two independent batches of ATB tablets were tested according to International Conference on Harmonization (ICH) Guideline for long-term (12 months at 25 ± 2 °C/60 ± 5% RH), intermediate (6 months at 30 ± 2 °C/65 ± 5% RH), and accelerated (40 ± 2 °C/75 ± 5% RH) stability [12].

[4] = Sample stability of ATB components (bench, freeze-thaw, short-term, long-term); type: physicochemical; details: in % (unit assumed)
Procedure: samples for calibration were prepared. The study and QC samples were prepared on the same day as the UPLC-MS/MS analysis was done.
Calibration curves were prepared the same way as described in section S1.2.2. The linearity of each calibration curve was determined by plotting the peak area ratio of Matr, Maac, Dict, and Frax to I.S. in plasma. […] The lower limit of […] was defined based on a signal-to-noise ratio of 10:1.
S1.2.4 Extraction recovery and matrix effect
The extraction recoveries of Matr, Maac, Dict, and Frax were determined by comparing the relative peak areas obtained from blank plasma spiked with analytes and those obtained from water spiked with the same amounts of analytes. Matrix effect was determined by comparing the peak areas of blank plasma extracts spikes with analytes and I.S. with those of the standard solutions dried and reconstituted with mobile phase. The quality control samples were prepared in plasma.
Bench work (25°C for 4 hours), short-term (-20°C for 7 days), long-term (-80°C for 4 months) and three freeze-thaw cycle stabilities were determined.

[5] = design: method as in ref [3] of Supplement S4 (Bui et al.); details: mice; ref [3] of Supplement S4 (Bui et al.); cited from earlier work
[6] = design: method as in Bui et al. [9]; details: ref Bui et al. [9]; cited from earlier work
[7] = design: method as in Gao et al. [11]; details: plasma; 1.2 g ATB (equal to 4.8 mg Matr); ref Gao et al. [11]; cited from earlier work
[8] = Sample stability of ATB components (bench, freeze-thaw, short-term, long-term); type: physicochemical; details: in % (unit assumed); remark: listed apart in the source
OCT1, OCT2 and OCT3 = system: OCT1, OCT2 and OCT3; design: method as in PMID 33896325; details: read-out: Km of uptake by OCT1, OCT2 and OCT3; cited from earlier work
[9] = design: method as in PMID 33896325; details: cited from earlier work
[10] = average of 8 healthy volunteers, single oral dose 2400 mg ATB
[11] = average of 8 healthy volunteers, single oral dose 2400 mg ATB, plasma
[12] = average of 8 healthy volunteers, single oral dose 2400 mg ATB, saliva
[13] = individual subjects, single oral dose 2400 mg ATB (8 tablets)
[14] = individual subjects, single oral dose 2400 mg ATB (8 tablets), plasma
[15] = individual subjects, single oral dose 2400 mg ATB (8 tablets), saliva

SMILES: O=C1CCC[C@@H]2[C@H]3CCCN4CCC[C@@H](CN12)[C@@H]34 [matrine]
- Rbp [1]: 0.97
- AUC0–24 Saliva/Plasma Ratio [2, 10]: 4.8 ± 1.7
- Cmax Saliva/Plasma Ratio [2, 10]: 6.4 ± 1.8
- AUC0–24 Plasma [2, 11]: 278.34 ± 84.90 ng·h/mL
- Half-Life Plasma [2, 11]: 10.38 ± 3.83 h
- Tmax Plasma [2, 11]: 2.16 ± 0.69 h
- AUC0–24 Saliva [2, 12]: 1302.37 ± 459.28 ng·h/mL
- Half-Life Saliva [2, 12]: 12.37 ± 7.01 h
- Tmax Saliva [2, 12]: 1.56 ± 0.82 h
- AUC(0-t) ([2]; plasma, 2.6 mg, plasma, 2.6 mg Matr p.o. (8 ATB tablets), read-out: AUC0-T Healthy Volunteers Observed): 278 ng·h/mL
- Cmax ([2]; plasma, 2.6 mg, plasma, 2.6 mg Matr p.o. (8 ATB tablets), read-out: Cmax Healthy Volunteers Observed): 25.2 ng/mL
- Tmax ([2]; plasma, 2.6 mg, plasma, 2.6 mg Matr p.o. (8 ATB tablets), read-out: Tmax Healthy Volunteers Observed): 2.2 h
- AUC(0-t) ([2]; plasma, 2400 mg, average of 8 healthy volunteers, single oral dose 2400 mg ATB, plasma, read-out: AUC0–24 Plasma): 266 ± 80 ng·h/mL
- Cmax ([2]; plasma, 2400 mg, average of 8 healthy volunteers, single oral dose 2400 mg ATB, plasma, read-out: Cmax Plasma): 25.2 ± 3.82 ng/mL
- half-life ([2]; plasma, 2400 mg, average of 8 healthy volunteers, single oral dose 2400 mg ATB, plasma, read-out: Half-Life Plasma (converted)): 10 ± 2.8 h
- Tmax ([2]; plasma, 2400 mg, average of 8 healthy volunteers, single oral dose 2400 mg ATB, plasma, read-out: Tmax Plasma): 2 ± 0.6 h
- Cmax ([2]; plasma, 2400 mg, individual subjects, single oral dose 2400 mg ATB (8 tablets), plasma, read-out: Cmax Plasma): 22.8 ng/mL
- Kp ([2]; 2400 mg, average of 8 healthy volunteers, single oral dose 2400 mg ATB, read-out: AUC0–24 Saliva/Plasma Ratio): 4.8 ± 2
- Kp ([2]; 2400 mg, average of 8 healthy volunteers, single oral dose 2400 mg ATB, read-out: Cmax Saliva/Plasma Ratio): 6.4 ± 1.4
- AUC(0-t) ([2]; saliva, 2400 mg, average of 8 healthy volunteers, single oral dose 2400 mg ATB, saliva, read-out: AUC0–24 Saliva): 1210 ± 399 ng·h/mL
- Cmax ([2]; saliva, 2400 mg, average of 8 healthy volunteers, single oral dose 2400 mg ATB, saliva, read-out: Cmax Saliva): 153 ± 53.5 ng/mL
- half-life ([2]; saliva, 2400 mg, average of 8 healthy volunteers, single oral dose 2400 mg ATB, saliva, read-out: Half-Life Saliva (converted)): 13.4 ± 6.9 h
- Tmax ([2]; saliva, 2400 mg, average of 8 healthy volunteers, single oral dose 2400 mg ATB, saliva, read-out: Tmax Saliva): 1.5 ± 0.9 h
- AUC0–24 Saliva/Plasma Ratio [2, 13]: 8.57 and 4.71 and 2.86 and 4.68 and 4.61 and 4.14 and 4.81 and 3.93
- Cmax Saliva/Plasma Ratio [2, 13]: 6.73 and 5.60 and 3.26 and 5.12 and 7.05 and 7.41 and 7.27 and 9.08
- AUC0–24 Plasma [2, 14]: 173.50 ng·h/mL and 240.73 ng·h/mL and 295.05 ng·h/mL and 228.16 ng·h/mL and 408.92 ng·h/mL and 247.39 ng·h/mL and 428.83 ng·h/mL and 231.84 ng·h/mL
- Cmax Plasma [2, 14]: 22.70 ng/mL and 28.06 ng/mL and 23.60 ng/mL and 28.56 ng/mL and 21.28 ng/mL and 31.91 ng/mL and 22.48 ng/mL
- Half-Life Plasma [2, 14]: 6.99 h and 8.43 h and 15.12 h and 17.06 h and 10.66 h and 9.84 h and 6.29 h and 8.65 h
- Tmax Plasma [2, 14]: 3 h and 3.3 h and 1 h
- AUC0–24 Saliva [2, 15]: 1487.35 ng·h/mL and 1133.48 ng·h/mL and 845.11 ng·h/mL and 1067.94 ng·h/mL and 1884.98 ng·h/mL and 1024.67 ng·h/mL and 2064.14 ng·h/mL and 911.28 ng·h/mL
- Cmax Saliva [2, 15]: 153.18 ng/mL and 127.11 ng/mL and 91.61 ng/mL and 120.81 ng/mL and 201.34 ng/mL and 157.71 ng/mL and 231.60 ng/mL and 204.07 ng/mL
- Half-Life Saliva [2, 15]: 7.38 h and 9.83 h and 7.59 h and 26.39 h and 18.98 h and 11.13 h and 5.42 h and 12.23 h
- Tmax Saliva [2, 15]: 0.5 h and 1 h and 3 h
- inter-subject variability of systemic exposure (AUC) ([2]; plasma): 30.1%
- inter-subject variability of systemic exposure (AUC) ([2]; saliva): 32.8%
- remaining percentage in ATB tablets, Long term 3 months ([3]; 25 ± 2 °C/60 ± 5% RH): 89.1 ± 2.7%
- remaining percentage in ATB tablets, Long term 6 months ([3]; 25 ± 2 °C/60 ± 5% RH): 93.9 ± 2.1%
- remaining percentage in ATB tablets, Long term 12 months ([3]; 25 ± 2 °C/60 ± 5% RH): 89.6 ± 0.8%
- remaining percentage in ATB tablets, Intermediate 3 months ([3]; 30 ± 2 °C/65 ± 5% RH): 89.6 ± 0.5%
- remaining percentage in ATB tablets, Intermediate 6 months ([3]; 30 ± 2 °C/65 ± 5% RH): 92.1 ± 3.6%
- remaining percentage in ATB tablets, Accelerated term 3 months ([3]; 40 ± 2 °C/75 ± 5% RH): 87.0 ± 5.0%
- remaining percentage in ATB tablets, Accelerated term 6 months ([3]; 40 ± 2 °C/75 ± 5% RH): 99.4 ± 3.2%
- Stability, 3 cycles freeze-thaw ([4]; HQC concentration level): 99.1 ± 6.7
- Stability, Bench work (4 hrs, 25 oC) ([4]; HQC concentration level): 103.1 ± 2.6
- Stability, Short-term (7 days, -20 oC) ([4]; HQC concentration level): 88.3 ± 6.6
- Stability, 3 cycles freeze-thaw ([4]; LOQ concentration level): 109.6 ± 1.3
- Stability, 3 cycles freeze-thaw ([4]; MQC concentration level): 93.7 ± 3.4
- Stability, Bench work (4 hrs, 25 oC) ([4]; MQC concentration level): 85.8 ± 8.9
- bioavailability [5]: 2.4 ± 1.2%
- First pass effect [6]: 26.00%
- AUC0-T Human Subjects Observed [7]: 412.2 ng·h/mL
- Cmax Human Subjects Observed [7]: 29.7 ng/mL
- Tmax Human Subjects Observed [7]: 3.0 h
- Stability, Long-term (6 months, -80 oC) ([8]; HQC concentration level): 94.6 ± 6.7
- Stability, Bench work (4 hrs, 25 oC) ([8]; LOQ concentration level): 110.5 ± 18.0
- Stability, Long-term (6 months, -80 oC) ([8]; LOQ concentration level): 96.2 ± 0.6
- Stability, Short-term (7 days, -20 oC) ([8]; LOQ concentration level): 86.6 ± 3.8
- Stability, Long-term (6 months, -80 oC) ([8]; MQC concentration level): 105.8 ± 3.8
- Stability, Short-term (7 days, -20 oC) ([8]; MQC concentration level): 85.7 ± 8.7

SMILES: CN(C)C(=N)N=C(N)N [metformin]
- Km (OCT1, OCT2 and OCT3): 285 to 3170 µM
- saliva/plasma concentration ratio [9]: 0.29–0.39
